Four molecules from US6048884A, “Amide derivatives and medicinal compositions thereof” (Yamanouchi Pharmaceutical Co., Ltd., priority 1997, dated 2000) can be followed below.

The subject of assay [1] is kk mice (insulin-resisting model: obesity and hyperglycemia). Description: Hypoglycemic test in kk mice (insulin sensitivity potentiating action). In kind it is in vivo. The conditions noted are these: oral administration of 10 mg/kg once daily for four days; blood sugar 15 to 18 hours after final administration vs level prior to administration; male kk mice, n=6; p<0.01. The protocol: 1. Hypoglycemic test in kk mice (insulin-resisting model: obesity and hyperglycemia) [insulin sensitivity potentiating action]:
Blood sugar levels under feeding were measured for male kk mice (sugar blood level being 200 mg/dl or more) and they were randomly divided into several groups. The drug to be tested was compulsorily administered per os once daily for four days and the blood sugar level after 15 to 18 hours from the final administration was compared with the level prior to the administration (n=6), whereupon a hypoglycemic rate (%) was calculated. Blood was collected from tail vein of the mouse using a glass capillary (previously treated with heparin), protein was removed therefrom and the amount of glucose (mg/dl) in the supernatant liquid was calorimetrically determined by a glucose oxidase method to obtain the blood sugar level.

The subject of assay [2] is normal rats (male rats of SD-strain). Description: Sugar tolerance test in normal rats (OGTT; insulin secretion promoting action). The class given is in vivo. To be noted: 10 mg/kg orally 30 minutes before glucose 2 g/kg per os; fasted male SD rats, n=4. Here is the method:
2. Sugar tolerance test in normal rats [insulin secretion promoting action]:
Male rats of SD-strain (seven weeks age) were fasted for one night and day, randomly divided into several groups and subjected to an oral glucose tolerance test (OGTT) (n=4). The compound to be tested was orally administered at 30 minutes before administration of glucose (2 g/kg per os). Blood was collected by a heparin-treated glass syringe from abdominal artery of the rat under anesthetization with 65 mg/kg of pentbarbital, protein was removed therefrom and the amount of glucose (mg/dl) in the supernatant liquid was calorimetrically determined by a glucose oxidase method to obtain the blood sugar level. Insulin level in blood was determined by measuring the amount of insulin (ng/ml) in plasma by means of a radio-immunoassay (RIA). The result was that, when 10 mg/kg of the compound of Example 4 was administered, insulin secretion increased to an extent of three-fold in terms of AUC ratio and blood sugar level decreased to 90% as compared with that prior to the administration.

Structures can show the parent of a compound that is named as a salt.

On to `O=C(Cc1csc(Nc2ccccc2)n1)Nc1ccc(CCNC[C@H](O)COc2ccccc2)cc1` [Example 4, (S)-2-(2-phenylaminothiazol-4-yl)-4'-[2-[(2-hydroxy-3-phenoxyethyl)amino]ethyl]acetanilide dihydrochloride], for which the hypoglycemic rate in assay [1] is on record as 56%. Further, in assay [2], the “blood sugar level decreased to, as compared with that prior to the administration” value stood at 90% and the “insulin secretion increase in terms of AUC ratio (plasma insulin, RIA)” value is “three-fold”.

As for `O=C(Cc1csc(NCc2ccccc2)n1)Nc1ccc(CCNC[C@H](O)COc2ccccc2)cc1` [Example 1, (S)-2-(2-benzylamino-4-thiazolyl)-4'-[2-[(2-hydroxy-3-phenoxypropyl)amino]ethyl]acetanilide], the hypoglycemic rate in assay [1] is on record as 47%.

With `O=C(Cc1csc(Nc2cccc(F)c2)n1)Nc1ccc(CCNC[C@H](O)COc2ccccc2)cc1` [Example 2-b, (S)-2-[2-(3-fluoroanilino)-4-thiazol-4-yl)-4'-[2-[(2-hydroxy-3-phenoxypropyl)amino]ethyl]acetanilide], in assay [1], the hypoglycemic rate is given as 52%.

On to `CC(Cc1ccc(NC(=O)Cc2csc(Nc3ccccc3)n2)cc1)NC[C@H](O)COc1ccccc1` (stereo partly drawn) [Example 2-c, (S)-2-(2-anilino-4-thiazol-4-yl)-4'-{2-[(-2-hydroxy-3-phenoxypropyl)amino]propyl}acetanilide], for which the hypoglycemic rate in assay [1] came out at 50%.
